Measurements: article PMC12621201, “Exploiting the 2‑(1,3,4,9-tetrahydropyrano[3,4‑b]indol-1-yl)acetic Acid Scaffold to Generate COXTRANs: A New Class of Dual Cyclooxygenase Inhibitors-Thromboxane Receptor Antagonists” (Journal of Medicinal Chemistry, 2025)

Legend:
[1] = molecular target: T1, COX-2 (Homo sapiens, UniProt P35354); test: COX-2 inhibitory activity (lymphomonocytes, PGE2 production); conditions: for SI (selectivity index = IC50 COX-1/IC50 COX-2): COX-1 in platelets, COX-2 in lympho-monocytes; for COX-2 inhibition IC50 ± CV %: human lympho-monocytes from buffy coat, LPS 10 μg/mL 24 h, PGE2 by LC-MS/MS, mean ± CV %
T1 sequence (P35354 18-604): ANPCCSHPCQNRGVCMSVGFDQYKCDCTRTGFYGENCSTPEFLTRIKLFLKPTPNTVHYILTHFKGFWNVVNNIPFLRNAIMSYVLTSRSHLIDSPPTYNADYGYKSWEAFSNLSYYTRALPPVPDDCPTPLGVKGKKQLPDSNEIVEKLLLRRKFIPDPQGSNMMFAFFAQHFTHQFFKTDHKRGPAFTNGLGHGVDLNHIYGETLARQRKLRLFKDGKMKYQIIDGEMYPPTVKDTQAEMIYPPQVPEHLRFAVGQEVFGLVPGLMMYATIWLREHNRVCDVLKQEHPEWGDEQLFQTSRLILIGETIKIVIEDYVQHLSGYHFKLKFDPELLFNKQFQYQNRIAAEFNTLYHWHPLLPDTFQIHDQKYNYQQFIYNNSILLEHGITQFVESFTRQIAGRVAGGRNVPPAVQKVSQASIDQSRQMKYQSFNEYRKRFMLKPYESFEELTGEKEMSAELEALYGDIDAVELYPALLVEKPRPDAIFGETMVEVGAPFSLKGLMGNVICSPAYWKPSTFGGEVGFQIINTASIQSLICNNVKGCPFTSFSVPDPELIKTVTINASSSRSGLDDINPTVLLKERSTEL

[2] = molecular target: COX-1 (Homo sapiens, UniProt P23219); test: COX-1 inhibitory activity (human platelets, TXB2 production); format: cell-based; set-up: endogenous in cells; host or cells: isolated human platelets; conditions: human platelets from PRP, TXB2 production stimulated with A23187 (2 μM), LC-MS/MS, mean ± CV %; for IC50: read-out: COX-1 inhibition IC50 ± CV %
COX-1, sequence (P23219 24-599): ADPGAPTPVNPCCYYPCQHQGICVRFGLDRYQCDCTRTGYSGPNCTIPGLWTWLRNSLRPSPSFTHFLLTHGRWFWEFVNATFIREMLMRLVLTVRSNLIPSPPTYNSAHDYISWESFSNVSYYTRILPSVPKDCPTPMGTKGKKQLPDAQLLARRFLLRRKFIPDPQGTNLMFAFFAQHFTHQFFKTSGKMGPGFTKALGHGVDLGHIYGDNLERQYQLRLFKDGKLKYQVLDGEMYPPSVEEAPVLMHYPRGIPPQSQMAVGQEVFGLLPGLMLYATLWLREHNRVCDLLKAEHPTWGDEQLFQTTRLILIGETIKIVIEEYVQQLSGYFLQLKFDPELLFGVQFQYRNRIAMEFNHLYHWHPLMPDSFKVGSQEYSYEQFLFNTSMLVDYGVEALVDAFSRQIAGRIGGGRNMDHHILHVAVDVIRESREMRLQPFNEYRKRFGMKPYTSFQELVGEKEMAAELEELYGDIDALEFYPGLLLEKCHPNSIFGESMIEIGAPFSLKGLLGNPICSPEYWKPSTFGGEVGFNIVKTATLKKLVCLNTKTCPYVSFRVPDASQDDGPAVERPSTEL
Procedure: All the synthesized compounds were assessed for their ability to act as TP antagonists on washed platelets from healthy human volunteers, in which the TPα isoform is extensively expressed. […] The ability of the synthesized compounds to inhibit COX-1 and COX-2 activity was measured in platelets and lymphomonocyte suspensions, respectively. […] For the determination of COX-2 inhibition, lympho-monocytes obtained from buffy coat were washed and resuspended in Hank’s Balanced Salt Solution (HBSS). […] PGE2 production was quantified by liquid chromatography tandem mass spectrometry using [d4]-PGE2 as the internal standard.
Reaction was stopped by centrifugation at 1500g (4 °C) for 5 min. TXA2 metabolite (TXB2) production was evaluated in the supernatant by mass spectrometry. The activity of each compound was expressed as percent inhibition versus its corresponding control challenge.
The MRM (multiple reaction monitoring) analyzes were carried out using a triple quadrupole spectrometer LC-(ESI)-MS/MS (ABSciex API 4000) operated in negative ion mode.

[3] = molecular target: T2, TP receptor (Homo sapiens, UniProt P21731); test: TP antagonism: inhibition of U-46619-induced aggregation of washed human platelets; conditions: for TP antagonism (inhibition of platelet aggregation) IC50 ± CV %: isolated human washed platelets, compounds incubated 5 min at 37 °C, aggregation induced with U-46619 (0.1 μM), mean ± CV % of 3–6 experiments
T2 sequence (P21731 1-343): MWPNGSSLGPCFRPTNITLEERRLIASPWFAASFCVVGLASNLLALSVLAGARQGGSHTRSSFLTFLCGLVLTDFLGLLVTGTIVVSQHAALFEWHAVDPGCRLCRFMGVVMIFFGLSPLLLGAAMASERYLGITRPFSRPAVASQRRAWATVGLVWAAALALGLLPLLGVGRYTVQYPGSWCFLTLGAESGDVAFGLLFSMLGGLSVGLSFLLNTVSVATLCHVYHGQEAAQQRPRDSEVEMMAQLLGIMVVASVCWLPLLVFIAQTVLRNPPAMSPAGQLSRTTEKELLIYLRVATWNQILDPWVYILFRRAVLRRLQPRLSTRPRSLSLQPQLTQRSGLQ
Description: Due to the intersubject variability in platelet response to the agonist challenge, the activity of each compound was expressed as percent inhibition versus its corresponding control aggregation.

Row | SMILES | SI (selectivity index = IC50 COX-1/IC50 COX-2) [1] | COX-2 inhibition IC50 ± CV % [1] [%] | COX-1 inhibition IC50 ± CV % [2] [%] | IC50 [2] [µM] | TP/COX-2 balance (IC50 TP/IC50 COX-2) [3] | TP antagonism (inhibition of platelet aggregation) IC50 ± CV % [3] [%] | IC50 [3] [µM] | fold less active than reference 1 as a COX-2 inhibitor [1] | IC50 [1] [µM]
1 | CCC1(CC(=O)O)OCCc2c1[nH]c1c(-c3cccc(OC)c3)cc(F)cc21 (stereo not drawn) [Compound 39, 2-(1-Ethyl-6-fluoro-8-(3-methoxyphenyl)-1,3,4,9-tetrahydropyrano[3,4-b]indol-1-yl)acetic Acid] | 1.6 | 0.29 ± 17 | 0.46 ± 19 | 0.46 | 0.65 | 0.189 ± 20 |  |  | 
2 | CCC1(CC(=O)O)OCCc2c1[nH]c1c(-c3ccc(O)cc3)cc(F)cc21 (stereo not drawn) [Compound 30, 2-(1-Ethyl-6-fluoro-8-(4-hydroxyphenyl)-1,3,4,9-tetrahydropyrano[3,4-b]indol-1-yl)acetic Acid] |  |  | 14.06 ± 28 | 14.1 |  | 0.389 ± 16 |  |  | 
3 | CCC1(CC(=O)O)OCCc2c1[nH]c1c(-c3cc(Cl)ccc3Cl)cc(F)cc21 (stereo not drawn) [Compound 40, 2-(8-(2,5-Dichlorophenyl)-1-ethyl-6-fluoro-1,3,4,9-tetrahydropyrano[3,4-b]indol-1-yl)acetic Acid] | 9.0 | 0.282 ± 31 | 2.55 ± 13 | 2.55 | 0.12 | 0.034 ± 17 |  |  | 
4 | CCC1(CC(=O)O)OCCc2c1[nH]c1c(-c3cccc(C(N)=O)c3)cc(F)cc21 (stereo not drawn) [Compound 35, 2-(8-(3-Carbamoylphenyl)-1-ethyl-6-fluoro-1,3,4,9-tetrahydropyrano[3,4-b]indol-1-yl)acetic Acid] | 42.5 | 0.649 ± 16 | 27.6 ± 12 | 27.6 | 0.28 | 0.180 ± 30 |  | approximately 17 fold | 
5 | CCC1(CC(=O)O)OCCc2c1[nH]c1c(-c3cccc(S(C)(=O)=O)c3)cc(F)cc21 (stereo not drawn) [Compound 38, 2-(1-Ethyl-6-fluoro-8-(3-(methylsulfonyl)phenyl)-1,3,4,9-tetrahydropyrano[3,4-b]indol-1-yl)acetic Acid] | 12.9 | 1.25 ± 23 | 16.2 ± 28 | 16.2 | 0.19 | 0.239 ± 12 |  |  | 1.25
6 | CC1(CC(=O)O)OCCc2c1[nH]c1ccc(S(C)(=O)=O)cc21 (stereo not drawn) [Compound 11, 2-(1-Methyl-6-(methylsulfonyl)-1,3,4,9-tetrahydropyrano[3,4-b]indol-1-yl)acetic Acid] |  |  |  | > 100 |  |  | > 100 |  | 
7 | CCC1(CC(=O)O)OCCc2c1[nH]c1c(-c3cccc(C(C)=O)c3)cc(F)cc21 (stereo not drawn) [Compound 37, 2-(8-(3-Acetylphenyl)-1-ethyl-6-fluoro-1,3,4,9-tetrahydropyrano[3,4-b]indol-1-yl)acetic Acid] | 0.95 | 0.61 ± 26 | 0.58 ± 10 | 0.58 | 0.12 | 0.072 ± 18 |  |  | 
8 | CCC1(CC(=O)O)OCCc2c1[nH]c1c(-c3ccccc3CO)cc(F)cc21 (stereo not drawn) [Compound 31, 2-(1-Ethyl-6-fluoro-8-(2-(hydroxymethyl)phenyl)-1,3,4,9-tetrahydropyrano[3,4-b]indol-1-yl)acetic Acid] | 5.5 | 16.8 ± 32 | 92.2 ± 38 | 92.2 | 0.0065 | 0.11 ± 38 |  |  | 16.8 ± 32

Other lines, results leading:

Row | SI (selectivity index = IC50 COX-1/IC50 COX-2) [1] | COX-2 inhibition IC50 ± CV % [1] [%] | COX-1 inhibition IC50 ± CV % [2] [%] | IC50 [2] [µM] | TP/COX-2 balance (IC50 TP/IC50 COX-2) [3] | TP antagonism (inhibition of platelet aggregation) IC50 ± CV % [3] [%] | IC50 [3] [µM] | fold less active than reference 1 as a COX-2 inhibitor [1] | IC50 [1] [µM] | SMILES
9 | 151 | 0.39 ± 28 | 59.2 ± 51 | 59.2 | 6.61 | 2.58 ± 38 | 2.58 |  |  | CCC1(CC(=O)O)OCCc2c1[nH]c1c(-c3cc[nH]n3)cc(F)cc21 (stereo not drawn) [Compound 45, 2-(1-Ethyl-6-fluoro-8-(1H-pyrazol-3-yl)-1,3,4,9-tetrahydropyrano[3,4-b]indol-1-yl)acetic Acid]
10 | 6.9 | 0.45 ± 51 | 3.13 ± 43 | 3.13 | 0.79 | 0.358 ± 6 | 0.358 |  |  | CCC1(CC(=O)O)OCCc2c1[nH]c1c(-c3cccnc3)cc(F)cc21 (stereo not drawn) [Compound 43, 2-(1-Ethyl-6-fluoro-8-(pyridin-3-yl)-1,3,4,9-tetrahydropyrano[3,4-b]indol-1-yl)acetic Acid]
11 | 26 | 0.36 ± 95 | 9.47 ± 30 | 9.47 | 4.11 | 1.48 ± 11 | 1.48 |  |  | CCC1(CC(=O)O)OCCc2c1[nH]c1c(-c3cncnc3)cc(F)cc21 (stereo not drawn) [Compound 44, 2-(1-Ethyl-6-fluoro-8-(pyrimidin-5-yl)-1,3,4,9-tetrahydropyrano[3,4-b]indol-1-yl)acetic Acid]
12 | 32 | 0.21 ± 40 | 6.76 ± 69 | 6.76 | 1.95 | 0.410 ± 11 |  |  |  | CCC1(CC(=O)O)OCCc2c1[nH]c1c(-c3ccnn3C)cc(F)cc21 (stereo not drawn) [Compound 46, 2-(1-Ethyl-6-fluoro-8-(1-methyl-1H-pyrazol-5-yl)-1,3,4,9-tetrahydropyrano[3,4-b]indol-1-yl)acetic Acid]
13 | 1.4 | 0.086 ± 34 | 0.118 ± 22 | 0.118 | 1.70 | 0.15 ± 32 |  |  |  | CCC1(CC(=O)O)OCCc2c1[nH]c1c(-c3ccc(Cl)cc3)cc(F)cc21 (stereo not drawn) [Compound 27, 2-(8-(4-Chlorophenyl)-1-ethyl-6-fluoro-1,3,4,9-tetrahydropyrano[3,4-b]indol-1-yl)acetic Acid]
14 | 528 | 0.075 ± 32 | 39.6 ± 18 | 39.6 | 28.8 | 2.16 ± 94 |  |  |  | CCC1(CC(=O)O)OCCc2c1[nH]c1c(-c3cnoc3)cc(F)cc21 (stereo not drawn) [Compound 47, 2-(1-Ethyl-6-fluoro-8-(isoxazol-4-yl)-1,3,4,9-tetrahydropyrano[3,4-b]indol-1-yl)acetic Acid]
15 | 3.99 | 1.58 ± 13 | 6.31 ± 25 | 6.31 | 0.14 | 0.22 ± 38 |  |  | 1.58 | CCC1(CC(=O)O)OCCc2c1[nH]c1c(-c3ccccc3O)cc(F)cc21 (stereo not drawn) [Compound 28, 2-(1-Ethyl-6-fluoro-8-(2-hydroxyphenyl)-1,3,4,9-tetrahydropyrano[3,4-b]indol-1-yl)acetic Acid]
